Like-named read-outs stand apart in the source and are kept apart here.
How the values were obtained:
[1] = tested on: cancer stem cells (CSCs) in MDA-MB-231 cell line; settings: MDA-MB-231 cell line ref 12; cited from earlier work
MCF10A = test: cells; assay type: cell-based; settings: Homo sapiens, MCF-10A, read-out: IC50, cell viability
in vitro = assay type: cell-based; settings: human
[2] = tested on: stem-like cells with epithelial-mesenchymal transition (EMT) properties; settings: cited from earlier work
P335 = P335 ref 6; cited from earlier work
MDA-MB-231 = test: cells; assay type: cell-based; settings: for IC50: Homo sapiens
glioblastoma Hs683 = glioblastoma Hs683 ref 9, 10; cited from earlier work
[3] = tested on: chronic lymphocytic leukemia (CLL); settings: chronic lymphocytic leukemia (CLL) ref 8; cited from earlier work

CC(C)=C[C@H]1C[C@H](C)[C@]2(CC[C@]3(C)C[C@H]4[C@H](C(=O)C[C@@]4(C)O)/C(C=O)=C\C[C@H]32)O1 [OpA, ophiobolin A]
effect on CD44/CD24-positive population [1]: significantly reducing the CD44/CD24-positive population
IC50 (MCF10A): 0.198 ± 0.076 µM
IC50 (in vitro): ~0.2 µM
induction of cell death in stem-like cells with EMT properties [2]: specifically induces cell death
IC50 (P335): 0.063 µM
IC50 (MDA-MB-231; MDA-MB-231, read-out: IC50, cell viability): 0.069 ± 0.024 µM
IC50 (MDA-MB-231; MDA-MB-231, read-out: cytotoxicity (IC50) as quoted in text): ~0.069 µM
selectivity between cancer vs non-cancer cell line (MDA-MB-231; MDA-MB-231 vs MCF-10A): ~ 3 fold
IC50 (glioblastoma Hs683): 0.62 µM
IC50 [3]: 0.001 µM

CC(C)=CCC[C@H](C)[C@@]1(O)CC[C@]2(C)C[C@H]3[C@H](C(=O)C[C@@]3(C)O)/C(C=O)=C\C[C@H]21 [compound 2]
effect on CD44/CD24-positive population [1]: significantly reducing the CD44/CD24-positive population
